Laboratory results from patent US20250230193A1, “CYCLIC COMPOUND HAVING SELECTIVE KRAS INHIBITORY EFFECT ON HRAS AND NRAS” (CHUGAI SEIYAKU KABUSHIKI KAISHA, priority 2022, published 2025).
Where a SMILES comes first, the peptide text is derived from it. Bridges are numbered along the chain shown (N, C = ends). [ ]: non-standard residue; d: D form. The star is where a group is joined. hPhe(3-Cl-4-CF3) = N[C@@H](CCc1ccc(C(F)(F)F)c(Cl)c1)C(=O)O; NEtPhe(4-Me) = CCN[C@@H](Cc1ccc(C)cc1)C(=O)O; NMeGly(cPent) = CN[C@H](C(=O)O)C1CCCC1; Hyp = O=C(O)[C@@H]1C[C@@H](O)CN1; NMeD = CN[C@@H](CC(=O)O)C(=O)O; NMeL = CN[C@@H](CC(C)C)C(=O)O; Morpholide = C1CN(*)CCO1; NMeA = CN[C@@H](C)C(=O)O; Ac5c = NC1(C(=O)O)CCCC1; Aze = O=C(O)[C@@H]1CCN1; Sar = CNCC(=O)O

Experiments:
[1] = molecular target: GDP-bound NRAS wild-type protein (Homo sapiens, UniProt P01111); test: Binding to NRAS by surface plasmon resonance (SPR), Single Cycle Kinetics; conditions: SPR; for NRAS/KRAS (ratio of KD value with respect to GDP-bound NRAS wild-type protein to KD value with respect to KRAS): GDP-bound wild-type proteins; for NRAS/KRAS (ratio of KD value with respect to NRAS to KD value with respect to KRAS): GDP-bound NRAS wild-type vs GDP-bound KRAS wild-type
[2] = molecular target: GDP-bound HRAS wild-type protein (Homo sapiens, UniProt P01112); test: Binding to HRAS by surface plasmon resonance (SPR), Single Cycle Kinetics; conditions: SPR; for HRAS/KRAS (ratio of KD value with respect to GDP-bound HRAS wild-type protein to KD value with respect to KRAS): GDP-bound wild-type proteins; for HRAS/KRAS (ratio of KD value with respect to HRAS to KD value with respect to KRAS): GDP-bound HRAS wild-type vs GDP-bound KRAS wild-type
Sequence of GDP-bound HRAS wild-type protein (P01112 whole entry): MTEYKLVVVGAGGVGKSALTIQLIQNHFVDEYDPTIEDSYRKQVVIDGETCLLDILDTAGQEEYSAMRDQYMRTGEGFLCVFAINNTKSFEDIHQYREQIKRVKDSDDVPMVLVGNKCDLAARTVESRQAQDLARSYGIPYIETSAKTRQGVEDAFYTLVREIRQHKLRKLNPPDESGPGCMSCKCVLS

Sequence of GDP-bound NRAS wild-type protein (P01111 whole entry): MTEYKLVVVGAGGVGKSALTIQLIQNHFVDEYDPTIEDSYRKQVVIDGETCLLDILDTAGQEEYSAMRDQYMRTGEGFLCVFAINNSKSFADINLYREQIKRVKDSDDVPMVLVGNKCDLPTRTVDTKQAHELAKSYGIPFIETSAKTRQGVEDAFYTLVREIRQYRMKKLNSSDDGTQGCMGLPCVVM

Question: What does the source list for `CCC[C@H]1C(=O)N[C@@H](C2CCCCC2)C(=O)N(C)CC(=O)N(C)[C@H]2C/C=C\CCN(C2=O)[C@@H](Cc2ccc(C)cc2)C(=O)N(C)CC(=O)N[C@@H](CCc2ccc(C(F)(F)F)c(Cl)c2)C(=O)N2C[C@H](OCC)C[C@H]2C(=O)NC2(CC(C)(C)C2)C(=O)N(C)[C@@H](C2CCCC2)C(=O)N(C)[C@H](C(=O)N(C)C)CC(=O)N1C` [PP2998]?
Answer: NRAS/KRAS (ratio of KD value with respect to GDP-bound NRAS wild-type protein to KD value with respect to KRAS) ([1]; KD ratio NRAS/KRAS): A (a compound having 10 or more and less than 20 is denoted as A); HRAS/KRAS (ratio of KD value with respect to GDP-bound HRAS wild-type protein to KD value with respect to KRAS) ([2]; KD ratio HRAS/KRAS): AA (a compound having 20 or more is denoted as AA)

Question: With `CCC[C@H]1C(=O)N[C@@H]([C@@H](C)CC)C(=O)N2CCC[C@H]2C(=O)N(C)[C@H]2C/C=C\CCN(C2=O)[C@@H](Cc2ccc(C(F)(F)F)cc2)C(=O)N(C)CC(=O)N[C@@H](CCc2ccc(C(F)(F)F)c(OC)c2)C(=O)N2C[C@H](OCC)C[C@H]2C(=O)N(C)C2(CCC2)C(=O)N(C)[C@@H](C2CCCC2)C(=O)N(C)[C@H](C(=O)N2CCCCC2)CC(=O)N1C` [PP3099] as the molecule, how does the “NRAS/KRAS (ratio of KD value with respect to GDP-bound NRAS wild-type protein to KD value with respect to KRAS)” value ([1]; KD ratio NRAS/KRAS) read?
Answer: The value was “A (a compound having 10 or more and less than 20 is denoted as A)”.

Question: What about the “HRAS/KRAS (ratio of KD value with respect to GDP-bound HRAS wild-type protein to KD value with respect to KRAS)” value ([2]; KD ratio HRAS/KRAS) of the same molecule?
Answer: Its value is “A (a compound having 10 or more and less than 20 is denoted as A)”.

Question: What does the source list for `CCC[C@H]1C(=O)N[C@@H]([C@@H](C)CC)C(=O)N(C2CC2)CC(=O)N(C)[C@H]2C/C=C\CCN(C2=O)[C@@H](CC2CCCCC2)C(=O)N(C)CC(=O)N[C@@H](CCc2ccc(C(F)(F)F)c(OC)c2)C(=O)N2C[C@H](OCC)C[C@H]2C(=O)N(C)C2(CCC2)C(=O)N(C)[C@@H](C(CC)CC)C(=O)N(C)[C@H](C(=O)N(C)C)CC(=O)N1C` [PP2337]?
Answer: NRAS/KRAS (ratio of KD value with respect to NRAS to KD value with respect to KRAS) [1]: A (a compound having 10 or more and less than 20 is denoted as A); HRAS/KRAS (ratio of KD value with respect to HRAS to KD value with respect to KRAS) [2]: A (a compound having 10 or more and less than 20 is denoted as A)

Question: `CCO[C@@H]1C[C@H]2C(=O)NC3(CCC3)C(=O)N(C)[C@@H](C3CCCC3)C(=O)N(C)[C@H](C(=O)N(C)C)CC(=O)N(C)[C@@H](Cc3ccc(F)c(F)c3)C(=O)N[C@@H]([C@@H](C)CC)C(=O)N(C)CC(=O)N(C)[C@H]3CCCCCN(C3=O)[C@@H](Cc3ccc(C(F)(F)F)cc3)C(=O)N(C)CC(=O)N[C@@H](CCc3cc(F)c(C(F)(F)F)c(F)c3)C(=O)N2C1` [PP0937] was tested. Which “NRAS/KRAS (ratio of KD value with respect to NRAS to KD value with respect to KRAS)” value ([1]; KD ratio) did it give?
Answer: Its value is “B (a compound having 3 or more and less than 10 is denoted as B)”.

Question: What about the “HRAS/KRAS (ratio of KD value with respect to HRAS to KD value with respect to KRAS)” value ([2]; KD ratio) of the same molecule?
Answer: Its value is “B (a compound having 3 or more and less than 10 is denoted as B)”.

Question: Which results are given for `CCO[C@@H]1C[C@H]2C(=O)NC3(CCC3)C(=O)N(C)[C@@H](C(CC)CC)C(=O)N(C)[C@H](C(=O)N(C)C)CC(=O)N(C)[C@@H](CC)C(=O)N[C@@H]([C@@H](C)CC)C(=O)N(C)CC(=O)N(C)[C@H]3C/C=C\CCN(C3=O)[C@@H](Cc3ccc(C(F)(F)F)cc3)C(=O)N(C)CC(=O)N[C@@H](CCc3cc(F)c(C(F)(F)F)c(F)c3)C(=O)N2C1` [PP1200]?
Answer: NRAS/KRAS (ratio of KD value with respect to NRAS to KD value with respect to KRAS) ([1]; KD ratio): AA (a compound having 20 or more is denoted as AA); HRAS/KRAS (ratio of KD value with respect to HRAS to KD value with respect to KRAS) ([2]; KD ratio): A (a compound having 10 or more and less than 20 is denoted as A)

Question: Which “NRAS/KRAS (ratio of KD value with respect to NRAS to KD value with respect to KRAS)” value [1] does the source give for `C#CCN1CC(=O)N(C)[C@H]2C/C=C\CCN(C2=O)[C@@H](Cc2ccc(C(F)(F)F)cc2)C(=O)N(C)CC(=O)N[C@@H](CCc2cc(F)c(C(F)(F)F)c(F)c2)C(=O)N2C[C@H](OCC)C[C@H]2C(=O)NC2(CC(C)(C)C2)C(=O)N(C)[C@@H](C2CCCC2)C(=O)N(C)[C@H](C(=O)N(C)C)CC(=O)N(C)[C@@H](CC)C(=O)N[C@@H]([C@@H](C)CC)C1=O` [PP2087] here?
Answer: Its value is “A (a compound having 10 or more and less than 20 is denoted as A)”.

Question: And the “HRAS/KRAS (ratio of KD value with respect to HRAS to KD value with respect to KRAS)” value [2]?
Answer: The value was “A (a compound having 10 or more and less than 20 is denoted as A)”.

Question: `CC[C@H](C)[C@@H]1NC(=O)[C@H](CC(C)C)N(C)C(=O)C[C@@H](C(=O)N2CCOCC2)N(C)C(=O)[C@H](C2CCCC2)N(C)C(=O)C2(CCCC2)NC(=O)[C@@H]2C[C@@H](O)CN2C(=O)[C@H](CCc2ccc(C(F)(F)F)c(Cl)c2)NC(=O)CN(C)C(=O)[C@H](Cc2ccc(C)cc2)N(CC)C(=O)[C@@H]2CCN2C(=O)[C@H](C)N(C)C1=O` [PP0013] ([NMeL]I[NMeA][Aze][NEtPhe(4-Me)][Sar][hPhe(3-Cl-4-CF3)][Hyp][Ac5c][NMeGly(cPent)][NMeD]-Morpholide; lactam N-11) was tested. Which “NRAS/KRAS (ratio of KD for GDP-bound NRAS wild-type to KD for KRAS)” value ([1]; KD ratio NRAS/KRAS) did it give?
Answer: The value was “C (A compound having a KD ratio of 0.1 or more and less than 3 is denoted as C)”.

Question: What about the “HRAS/KRAS (ratio of KD for GDP-bound HRAS wild-type to KD for KRAS)” value ([2]; KD ratio HRAS/KRAS) of the same molecule?
Answer: The value was “C (A compound having a KD ratio of 0.1 or more and less than 3 is denoted as C)”.
